Each structure is given as a SMILES string.

A short description of the data set: gradient 5% acetonitrile 3 min, to 50% in 2 min, to 85% in 15 min, held 3 min, 100 µL/min. The settings on record: column: Zorbax Extend-C18 2.1 x 50 mm; eluents: water / acetonitrile, 0.1% formic acid. The gist of the method:
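Using water and acetonitrile that each contained 0.1% formic acid, mixtures of ~100 pure standards were separated at 100 μL/min on a Zorbax Extend-C18 column (2.1 × 50 mm, 1.8 μm). The HPLC fed a quadrupole time-of-flight mass spectrometer working in positive and negative ionization mode, with dead and dwell volumes of 40 μL and 900 μL. Data were acquired over 3 months. Retention time was read from computationally picked adduct peaks after manual inspection of each.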
As for `Cc1ccc(C2Cn3cnc(C(=O)N4CCC(C(=O)NCCCc5ccccc5)CC4)c3CO2)cc1` (centres undefined), the RP-LC retention time came to 853 s. The compound `CC1CC(C)CN(CCCNC(=O)c2ccc3c(c2)NC(=O)CS3)C1` (centres undefined) came in with an RP-LC retention time of 605 s. With `Cc1c(CN2CC(F)(F)C[C@H]2COc2ccncc2)cnn1C` the figure was 502 s.

For `O=C(NCC1CC1)c1sc2ncccc2c1-n1cccc1`, the RP-LC retention time stood at 902 s. With `COCc1noc([C@@H]2CC(F)(F)CN2C(=O)c2ocnc2C)n1` the figure was 679 s. With `COc1cccc(OC)c1OCC(O)CN1CCN(c2ccccc2F)CC1` (centres undefined) the figure was 684 s. `COCCN1C(=O)CCc2cc(NS(=O)(=O)c3ccc(Cl)cc3)ccc21` showed an RP-LC retention time of 771 s. In the case of `CN(CC1CCOC1)C(=O)Nc1ccc(C(F)(F)F)cc1` (centres undefined), the RP-LC retention time was 783 s.

`CSc1ccccc1NC(=O)c1cnc(-c2ccc(C)cc2)nc1-c1ccncc1`: the RP-LC retention time amounted to 973 s. Next, `CCCN(C)S(=O)(=O)c1cc(-c2nc(C)cs2)n(CC(=O)N2CCCCC2)c1`: 967 s; `O=C(NCCCN1CCOCC1)C1CCCN(c2nccnc2Sc2ccccc2)C1` (centres undefined): 651 s. Next, `CCCC(Nc1nc(C(=O)OCC)nc2ccccc12)c1cccs1` (centres undefined): 933 s; `Cc1ccc(NC(=O)Cn2c(C)nc3cc4c(cc32)OCCO4)cc1C`: 678 s; `COc1cccc(CN2CCC(N3CC4(CCCCC4)C3c3ccccc3)CC2)c1OC` (centres undefined): 624 s.

The compound `O=S(=O)(Cc1ccccc1)N1CCC(n2c(-c3ccco3)nc3cccnc32)C1` (centres undefined) registered an RP-LC retention time of 802 s. Next, `COc1cccc(CN2N=C(C(=O)N3CCOCC3)S(=O)(=O)c3cc(Cl)ccc32)c1`: 887 s; `Cc1nc(-c2cc(S(=O)(=O)NCc3ccc(OC(C)C)cc3)c(C)s2)cs1`: 1080 s; `CCOC(=O)C(=O)Nc1c(C(=O)Nc2cccc(Cl)c2)oc2ccccc12`: 1090 s. Consider `CCSc1nc2ccc(NS(=O)(=O)c3ccc(C)c(C)c3)cc2s1`, for which the RP-LC retention time turned out to be 1080 s.

On to `Cc1ccc(CNC(=O)Cn2nc(C)c3nn(-c4ccccc4)c(C)c3c2=O)o1`, for which the RP-LC retention time came to 816 s. Next, `O=C(CCNC(=O)Cn1cnc2ccccc2c1=O)NCCc1c[nH]c2ccccc12`: 668 s; `COc1cc2c(cc1OC)CN(S(=O)(=O)CCCNC(=O)CC1CCCCC1)CC2`: 767 s. As for `O=C(C1=CN(c2ccc(F)cc2)c2cc(Cl)ccc2S1(=O)=O)N1CCCC1`, the RP-LC retention time worked out at 844 s.

For `Cc1ccccc1-n1c(=O)c2sccc2n(Cc2nc(-c3ccc(Cl)cc3)no2)c1=O`, the RP-LC retention time was determined as 1090 s. As for `Cn1nc2c(c1NC(=O)c1cc(C(F)(F)F)cc(C(F)(F)F)c1)CCC2`, the RP-LC retention time came out at 927 s.

Consider `Cc1nn(CC(=O)NCc2ccc(F)cc2Cl)c(=O)c2noc(C)c12`, for which the RP-LC retention time was determined as 721 s. Next, `Cc1ccc(NC(=O)C2CCCN(S(=O)(=O)c3c[nH]c(C(=O)N4CCCCCC4)c3)C2)cc1` (centres undefined): 926 s; `Cc1nc2cc(-c3noc(-c4cccc(Cl)c4)n3)ccc2o1`: 1210 s; `CC1CCCN(c2ccc(-c3noc(CN4CCC5(CC4)OCCO5)n3)cn2)C1` (centres undefined): 680 s. With `COc1ccc(S(=O)(=O)N2CCc3c(c(-c4nnc(-c5ccc(F)cc5)o4)nn3C)C2)cc1`, the RP-LC retention time is 945 s.

`Cc1nn(C(C)C(=O)NCCCOC(C)C)c(=O)c2nn(-c3ccccc3)c(C)c12` (centres undefined) yielded an RP-LC retention time of 771 s. `CCCCN(C)C(=O)C1CCN(S(=O)(=O)c2ccc3c(c2)sc(=O)n3C)CC1` had an RP-LC retention time of 822 s. With `C=CCn1c(-c2ccc([N+](=O)[O-])cc2)nc2nc3ccccc3nc21` the figure was 825 s; with `CCOC(=O)N1CCN(c2nc(F)c3c(c2F)S(=O)(=O)CCN3C2CCCCC2)CC1`, 1170 s.

Compound `CCCc1nc2cccnc2n1C1CCN(C(=O)Cc2cccs2)C1` (centres undefined) returned an RP-LC retention time of 612 s. Next, `CC1CCN(S(=O)(=O)c2cc(C(=O)N3CCN(c4ccc(F)cc4)CC3)n(C)c2)CC1`: 1010 s; `COC(=O)c1c(C)[nH]c(C(=O)N2CCC(CC(=O)NCCN3CCCCC3)CC2)c1C`: 584 s. Next, `COc1nc2ccccc2nc1N1CCCC(C(=O)NC(C)c2ccccc2)C1` (centres undefined): 1050 s; `Cc1cc(S(=O)(=O)N2CCc3c(c(-c4nnc(-c5ccccc5F)o4)nn3C)C2)ccc1F`: 988 s.

Turning to `Clc1ccc(-c2nc(-c3ccc(-n4ccnc4)nc3)no2)cc1`, the RP-LC retention time was found to be 797 s. In the case of `COc1cc(NC(=O)N2CCc3cn(C)c4cccc(c34)C2)cc(OC)c1`, the RP-LC retention time was 713 s. Next, `COc1cccc(-c2cn3ccn(-c4ccc(Br)cc4)c(=O)c3n2)c1`: 866 s. Regarding `O=c1ccn(-c2ccc(Cl)cc2)nc1-c1nc(-c2ccc(Br)cc2)no1`, the RP-LC retention time worked out at 1080 s. Next, `CCCOc1cc(N2CCN(C(=O)c3ccc4c(c3)OCO4)CC2)nc(C)n1`: 608 s; `CCN1CCn2cc(S(=O)(=O)Nc3cc(C)ccc3C)cc2C1=O`: 752 s; `Cc1cc(N2CCN(S(=O)(=O)c3ccc(F)c(F)c3)CC2)nc(N2CCOCC2)n1`: 664 s. Next, `CCc1ccc(-c2cc(C(=O)N3CCN(c4ncccn4)CC3)c3ccccc3n2)s1`: 1090 s; `Cc1cc(C)cc(C(=O)N2CCN(c3nc(C)cc(N4CCOCC4)n3)CC2)c1`: 653 s. Next, `O=C(Cn1cccc(-c2nc(-c3ccc(Br)cc3)no2)c1=O)NCc1ccccc1`: 939 s; `O=C(O)CCC1CCN(S(=O)(=O)c2ccccc2)CC1`: 739 s. As for `Cc1ccc(C(=O)N2CCC3(CCC3N3CCOCC3)CC2)s1` (centres undefined), the RP-LC retention time stood at 597 s.

Take `COCCCN(CC(=O)N1CCc2sccc2C1COc1ccc(Cl)cc1)C(=O)NC(C)C` (centres undefined): the RP-LC retention time is 996 s. Compound `CS(=O)(=O)N1CCCC(C(=O)NC2CCCCC2)CCNC(=O)CC1` (centres undefined) came in with an RP-LC retention time of 633 s.

For the compound `O=C(NCCn1c(=O)n(Cc2ccccc2)c2cccnc21)c1cccnc1`, the RP-LC retention time came out at 650 s. With `CCn1cc(C2=CCN(C(=O)NCc3ccc(OC)cc3)CC2)c2cccnc21` the figure was 858 s; with `Cc1nc2cc(-c3noc(-c4cccc(Cl)c4)n3)ccc2n(C)c1=O`, 1140 s. Next, `NC(=NCc1ccc(Cl)cc1Cl)NC(=O)c1nc(Cl)c(N)nc1N`: 770 s; `Cc1ccc(NC(=O)N2CCC(n3cnc4cccnc43)CC2)cc1F`: 682 s. With `Cc1cc(NC(=O)C2CCN(C(=O)c3nc4ccccc4s3)CC2)no1` the figure was 746 s; with `Cc1ccc(C(=O)NC2CCN(c3ncnc4c3CCC4)C2)s1` (centres undefined), 606 s.

`CN(CCCNC(=O)Cn1c(=O)c2cccn2c2ccc(F)cc21)C1CCCCC1` displayed an RP-LC retention time of 635 s. `Cc1ccc(S(=O)(=O)N2C(=O)CCC2C(=O)NC2CCCCC2)cc1C` (centres undefined) showed an RP-LC retention time of 916 s. Take `Cc1ccc(OCC(=O)Nc2cc3c(cc2N(C)C)n(C)c(=O)c(=O)n3C)c(C)c1`: the RP-LC retention time came to 962 s.

The compound `CCN1CCN(S(=O)(=O)c2cc(-c3nnc(-c4ccccc4)o3)ccc2OC)CC1` yielded an RP-LC retention time of 636 s. As to `CCc1ccc(NC(=O)c2c(C)oc3c2C2=NC(CC)CN2C=N3)cc1` (centres undefined), the RP-LC retention time stood at 712 s. `Cc1cc(C)cc(NC(=O)Cn2ccc3sccc3c2=O)c1` showed an RP-LC retention time of 820 s. With `O=c1c2cnc3nc(-c4ccccc4)nn3c2ccn1CCc1c[nH]c2ccc(Cl)cc12` the figure was 997 s.

In the case of `COC(=O)c1ccccc1NC(=O)C1CN(C(=O)c2ccc(F)c(F)c2)C1`, the RP-LC retention time stood at 803 s. With `COc1cccc(-c2cc3c(=O)n(Cc4nc(-c5ccc(F)c(Br)c5)no4)ccn3n2)c1` the figure was 1090 s; with `COc1ccc(-c2nnc(N3CCC(C(=O)NC(C)c4ccc(C)cc4C)CC3)o2)cc1` (centres undefined), 934 s. Next, `Cc1ccc(CNC(=O)C2(CCO)CCN(c3ncccn3)C2)o1` (centres undefined): 602 s. Next, `CNc1nc(Nc2ccc(F)cc2C)nc2ccccc12`: 678 s. For the compound `COCCCNC(=O)C1CCN(C(=O)c2ccc(-n3c(C)cc4ccccc43)s2)CC1`, the RP-LC retention time amounted to 854 s. With `O=C(Nc1cccc(F)c1)c1n[nH]nc1Nc1cccc(F)c1` the figure was 1050 s; with `O=C(c1sc2ncccc2c1-n1cccc1)N1CCN(c2ccccc2Cl)CC1`, 1120 s; with `Cc1cc(-c2ccc(S(=O)(=O)N3CCC(C(=O)NCc4ccco4)CC3)o2)n[nH]1`, 733 s. With `Cc1ccc(C)c(CNC(=O)c2cn3c(n2)CCCC3)c1` the figure was 622 s. Turning to `CCOc1ccccc1NC(=O)CN1C(=O)CC(c2cccs2)=Nc2ccccc21`, the RP-LC retention time turned out to be 1050 s.

`Cc1cc(=O)n(CC(=O)NCc2ccc(F)cc2Cl)c(N)n1` had an RP-LC retention time of 861 s.

(Values after the METLIN SMRT retention time set (Domingo-Almenara et al. 2019).)
